From ChEMBL document CHEMBL5113492, “Design, synthesis, and biological evalution of bifunctional inhibitors against Hsp90-HDAC6 interplay” (Eur J Med Chem, 2022)
Activity calls are given as the source filed them. The rule behind the calls is not given here.

Assays:
[1] = biological target: T1, Protein deacetylase HDAC6 (Homo sapiens) (UniProt Q9UBN7); assay: Inhibition of HDAC6 in human NCI-H1975 cells assessed as increase in acetylation of alpha tubulin at 2 uM incubated for 24 hrs by western blot analysis; format: cell-based
T1 sequence (whole entry): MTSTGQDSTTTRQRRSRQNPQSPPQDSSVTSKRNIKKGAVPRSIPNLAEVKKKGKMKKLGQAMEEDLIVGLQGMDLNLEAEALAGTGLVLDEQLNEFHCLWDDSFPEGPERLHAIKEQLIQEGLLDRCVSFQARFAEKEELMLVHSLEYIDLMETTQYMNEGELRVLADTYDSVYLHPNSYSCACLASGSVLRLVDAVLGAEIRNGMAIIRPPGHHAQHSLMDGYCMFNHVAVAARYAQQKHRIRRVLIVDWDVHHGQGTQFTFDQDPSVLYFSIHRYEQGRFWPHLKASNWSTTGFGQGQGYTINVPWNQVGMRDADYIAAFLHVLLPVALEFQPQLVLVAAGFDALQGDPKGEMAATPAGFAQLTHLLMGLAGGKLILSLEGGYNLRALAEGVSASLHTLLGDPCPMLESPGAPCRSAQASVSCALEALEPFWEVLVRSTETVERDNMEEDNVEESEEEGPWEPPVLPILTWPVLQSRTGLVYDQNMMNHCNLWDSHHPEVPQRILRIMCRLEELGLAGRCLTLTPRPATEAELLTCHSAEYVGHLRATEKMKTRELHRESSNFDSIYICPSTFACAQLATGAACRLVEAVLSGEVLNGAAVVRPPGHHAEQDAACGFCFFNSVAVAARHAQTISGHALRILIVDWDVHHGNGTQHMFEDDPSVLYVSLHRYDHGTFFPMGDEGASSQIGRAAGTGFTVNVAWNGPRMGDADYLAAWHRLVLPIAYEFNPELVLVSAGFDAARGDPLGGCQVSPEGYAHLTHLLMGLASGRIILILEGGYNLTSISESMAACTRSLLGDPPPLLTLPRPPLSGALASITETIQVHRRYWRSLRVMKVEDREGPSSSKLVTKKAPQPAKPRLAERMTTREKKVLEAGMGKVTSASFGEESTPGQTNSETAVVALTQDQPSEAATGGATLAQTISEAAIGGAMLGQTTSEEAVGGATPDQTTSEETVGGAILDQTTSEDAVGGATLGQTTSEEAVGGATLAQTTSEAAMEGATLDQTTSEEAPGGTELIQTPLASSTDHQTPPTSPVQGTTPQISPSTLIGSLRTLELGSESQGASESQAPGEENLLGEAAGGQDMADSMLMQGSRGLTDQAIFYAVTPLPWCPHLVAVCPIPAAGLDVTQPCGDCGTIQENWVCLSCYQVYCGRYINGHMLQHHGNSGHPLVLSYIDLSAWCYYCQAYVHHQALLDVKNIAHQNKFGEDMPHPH

[2] = tested on: NCI-H1975; assay: Induction of apoptosis in human NCI-H1975 cells assessed as caspase-3 cleavage at 0.05 to 2 uM incubated for 24 hrs by western blot analysis; format: functional, cell-based; details: dose 0.05-2 µM, DDE = dose-dependent effect
[3] = tested on: NCI-H1975; assay: Induction of apoptosis in human NCI-H1975 cells assessed as early apoptotic cells at 2 uM incubated for 24 hrs by Annexin-V/propidium iodide staining based flow cytometry analysis; format: functional
[4] = Toxicity in NSG mouse xenografted with human NCI-H1975 cells assessed as change in body weight at 25 mg/kg,ip measured after 6 weeks; format: organism-based; details: in vivo, 1008 h
[5] = biological target: T1, Protein deacetylase HDAC6 (Homo sapiens); assay: Inhibition of HDAC6 in human NCI-H1975 cells assessed as increase in acetylation of alpha tubulin at 1 uM incubated for 24 hrs by western blot analysis; format: cell-based
[6] = Toxicity in NSG mouse xenografted with human NCI-H1975 cells assessed as abnormal behavior at 25 mg/kg,ip measured after 6 weeks; format: organism-based; details: in vivo, 1008 h
[7] = tested on: Mus musculus; assay: In vivo inhibition of HSP90 in human NCI-H1975 cells xenografted with NSG mouse assessed as downregulation of EGFR expression at 50 mg/kg,ip measured after 6 weeks by immunohistochemistry analysis; format: functional, organism-based
[8] = biological target: T2, Histone deacetylase 7 (Homo sapiens, UniProt Q8WUI4); assay: Inhibition of HDAC7 (unknown origin) using fluorogenic substrate incubated for 30 mins by fluorescence plate reader
T2 sequence (Q8WUI4 whole entry): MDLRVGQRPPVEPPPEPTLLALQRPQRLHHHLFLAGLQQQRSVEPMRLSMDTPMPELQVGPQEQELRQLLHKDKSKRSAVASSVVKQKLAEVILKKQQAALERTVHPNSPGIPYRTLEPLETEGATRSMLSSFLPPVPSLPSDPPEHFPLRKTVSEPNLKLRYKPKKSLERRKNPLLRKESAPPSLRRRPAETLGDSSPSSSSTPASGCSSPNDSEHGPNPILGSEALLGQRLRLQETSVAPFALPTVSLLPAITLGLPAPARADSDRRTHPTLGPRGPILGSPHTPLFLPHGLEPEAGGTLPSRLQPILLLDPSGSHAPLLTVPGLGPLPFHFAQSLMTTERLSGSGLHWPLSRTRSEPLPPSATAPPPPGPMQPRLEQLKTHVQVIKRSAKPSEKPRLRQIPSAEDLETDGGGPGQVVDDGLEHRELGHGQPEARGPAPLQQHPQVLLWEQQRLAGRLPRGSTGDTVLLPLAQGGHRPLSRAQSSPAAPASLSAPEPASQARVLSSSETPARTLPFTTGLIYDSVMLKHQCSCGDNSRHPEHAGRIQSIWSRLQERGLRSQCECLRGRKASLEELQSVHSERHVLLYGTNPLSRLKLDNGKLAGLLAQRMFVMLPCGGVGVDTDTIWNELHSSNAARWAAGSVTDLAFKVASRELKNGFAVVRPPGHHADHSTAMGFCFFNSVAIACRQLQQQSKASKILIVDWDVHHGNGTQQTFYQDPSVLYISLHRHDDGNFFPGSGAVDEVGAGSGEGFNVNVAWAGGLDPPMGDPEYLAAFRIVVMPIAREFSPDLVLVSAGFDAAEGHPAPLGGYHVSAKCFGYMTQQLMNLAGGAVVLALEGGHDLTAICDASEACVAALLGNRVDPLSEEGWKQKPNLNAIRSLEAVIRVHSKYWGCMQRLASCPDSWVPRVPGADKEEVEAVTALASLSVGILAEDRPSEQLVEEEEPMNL

[9] = biological target: T1, Protein deacetylase HDAC6 (Homo sapiens); assay: Inhibition of HDAC6 in human NCI-H1975 cells assessed as increase in acetylation of HSP90 at 2 uM incubated for 24 hrs by western blot analysis; format: cell-based
[10] = biological target: T3, Heat shock protein HSP90 (Homo sapiens) (UniProt P07900+P08238); assay: Inhibition of HSP90 in human NCI-H1975 cells assessed as downregulation of Her2 expression at 2 uM incubated for 24 hrs by western blot analysis; format: cell-based
[11] = biological target: T3, Heat shock protein HSP90 (Homo sapiens); assay: Inhibition of HSP90 in human NCI-H1975 cells assessed as downregulation of Akt expression at 2 uM incubated for 24 hrs by western blot analysis; format: cell-based
[12] = biological target: T3, Heat shock protein HSP90 (Homo sapiens); assay: Inhibition of HSP90 in human NCI-H1975 cells assessed as downregulation of EGFR expression at 2 uM incubated for 24 hrs by western blot analysis; format: cell-based

inhibition [1]: Active
inhibition [5]: Active
IC50 [8]: 1690 nM
inhibition [9]: Active
inhibition [10]: Active
inhibition [11]: Active
inhibition [12]: Active
SMILES: CC(C)c1cc(C(=O)N(C)Cc2ccc(C(=O)NO)cc2)c(O)cc1O
Activity [2]: Dde
Activity [3]: 16.78%
Activity [4]: Non-Toxic
Activity [6]: Non-Toxic
inhibition [7]: Active
